Patent publication US20100143506A1, “APPARATUS AND METHOD FOR TREATMENT OF MICROORGANISMS DURING SUGAR PRODUCTION AND SUGAR-BASED FE[…]” (priority 2008, published 2010)

What was measured:
Weisella confusa = conditions: cited from earlier work
fermentation = conditions: cited from earlier work
bacteria = experiment: Plant trial: lactate in the fermentor while the thin juice line is treated with chlorine dioxide
Procedure: A thin juice line at a sugar plant that fed into a distillery for fermentation was treated with chlorine dioxide according to the present method. Previously the thin juice line had been treated using sulfuric acid to decrease the pH. The trial evaluated the bacterial efficacy of chlorine dioxide at an elevated pH in order to reduce sulfuric acid use without causing a detrimental effect to the yeast or fermentation.
In the trial, 90% pure chlorine dioxide solution was generated. Twenty parts per million (ppm) of chlorine dioxide was introduced into the thin juice line. Thin juice samples were collected before during and after the trial. The samples were examined for chlorite, chlorate and chloride residuals.
During the trial, bacterial samples were also collected and analyzed at various locations in the system.
The data indicates a low level of lactate before chlorine dioxide was introduced at the normal pH of 3.5. […] On day 18 the equipment had to be shutdown due to an unrelated issue.

Virginiamycin
concentration required to inhibit growth of Weisella confusa (Weisella confusa): over 25 mg/L
concentration that will suppress fermentation (fermentation): over 6 mg/L

[O][Cl+][O-] [chlorine dioxide]
Lactate Concentration (bacteria; Day of Trial 4, Fifth location in the Fermentor): 0.6 g/L
Lactate Concentration (bacteria; Day of Trial 4, First location in the Fermentor): 0.39 g/L
Lactate Concentration (bacteria; Day of Trial 4, Fourth location in the Fermentor): 0.58 g/L
Lactate Concentration (bacteria; Day of Trial 4, Second location in the Fermentor): 0.6 g/L
Lactate Concentration (bacteria; Day of Trial 4, Third location in the Fermentor): 0.6 g/L
Lactate Concentration (bacteria; Day of Trial 5, Fifth location in the Fermentor): 0.75 g/L
Lactate Concentration (bacteria; Day of Trial 5, First location in the Fermentor): 0.44 g/L
Lactate Concentration (bacteria; Day of Trial 5, Fourth location in the Fermentor): 0.69 g/L
Lactate Concentration (bacteria; Day of Trial 5, Second location in the Fermentor): 0.66 g/L
Lactate Concentration (bacteria; Day of Trial 5, Third location in the Fermentor): 0.71 g/L
Lactate Concentration (bacteria; Day of Trial 6, Fifth location in the Fermentor): 0.69 g/L
Lactate Concentration (bacteria; Day of Trial 6, First location in the Fermentor): 0.39 g/L
Lactate Concentration (bacteria; Day of Trial 6, Fourth location in the Fermentor): 0.71 g/L
Lactate Concentration (bacteria; Day of Trial 6, Second location in the Fermentor): 0.54 g/L
Lactate Concentration (bacteria; Day of Trial 6, Third location in the Fermentor): 0.62 g/L
Lactate Concentration (bacteria; Day of Trial 7, Fifth location in the Fermentor): 0.9 g/L
Lactate Concentration (bacteria; Day of Trial 7, First location in the Fermentor): 0.51 g/L
Lactate Concentration (bacteria; Day of Trial 7, Fourth location in the Fermentor): 0.88 g/L
Lactate Concentration (bacteria; Day of Trial 7, Second location in the Fermentor): 0.76 g/L
Lactate Concentration (bacteria; Day of Trial 7, Third location in the Fermentor): 0.81 g/L
Lactate Concentration (bacteria; Day of Trial 8, Fifth location in the Fermentor): 0.75 g/L
Lactate Concentration (bacteria; Day of Trial 8, First location in the Fermentor): 0.44 g/L
Lactate Concentration (bacteria; Day of Trial 8, Fourth location in the Fermentor): 0.7 g/L
Lactate Concentration (bacteria; Day of Trial 8, Second location in the Fermentor): 0.55 g/L
Lactate Concentration (bacteria; Day of Trial 8, Third location in the Fermentor): 0.64 g/L
Lactate Concentration (bacteria; Day of Trial 9, Fifth location in the Fermentor): 0.83 g/L
Lactate Concentration (bacteria; Day of Trial 9, First location in the Fermentor): 0.5 g/L
Lactate Concentration (bacteria; Day of Trial 9, Fourth location in the Fermentor): 0.78 g/L
Lactate Concentration (bacteria; Day of Trial 9, Second location in the Fermentor): 0.68 g/L
Lactate Concentration (bacteria; Day of Trial 9, Third location in the Fermentor): 0.74 g/L
Lactate Concentration (bacteria; Day of Trial 10, Fifth location in the Fermentor): 0.84 g/L
Lactate Concentration (bacteria; Day of Trial 10, First location in the Fermentor): 0.55 g/L
Lactate Concentration (bacteria; Day of Trial 10, Fourth location in the Fermentor): 0.83 g/L
Lactate Concentration (bacteria; Day of Trial 10, Second location in the Fermentor): 0.77 g/L
Lactate Concentration (bacteria; Day of Trial 10, Third location in the Fermentor): 0.82 g/L
Lactate Concentration (bacteria; Day of Trial 11, Fifth location in the Fermentor): 0.8 g/L
Lactate Concentration (bacteria; Day of Trial 11, First location in the Fermentor): 0.4 g/L
Lactate Concentration (bacteria; Day of Trial 11, Fourth location in the Fermentor): 0.65 g/L
Lactate Concentration (bacteria; Day of Trial 11, Second location in the Fermentor): 0.5 g/L
Lactate Concentration (bacteria; Day of Trial 11, Third location in the Fermentor): 0.55 g/L
Lactate Concentration (bacteria; Day of Trial 13, Fifth location in the Fermentor): 0.42 g/L
Lactate Concentration (bacteria; Day of Trial 13, First location in the Fermentor): 0.22 g/L
Lactate Concentration (bacteria; Day of Trial 13, Fourth location in the Fermentor): 0.39 g/L
Lactate Concentration (bacteria; Day of Trial 13, Second location in the Fermentor): 0.33 g/L
Lactate Concentration (bacteria; Day of Trial 13, Third location in the Fermentor): 0.36 g/L
Lactate Concentration (bacteria; Day of Trial 14, Fifth location in the Fermentor): 0.51 g/L
Lactate Concentration (bacteria; Day of Trial 14, First location in the Fermentor): 0.22 g/L
Lactate Concentration (bacteria; Day of Trial 14, Fourth location in the Fermentor): 0.4 g/L
Lactate Concentration (bacteria; Day of Trial 14, Second location in the Fermentor): 0.36 g/L
Lactate Concentration (bacteria; Day of Trial 14, Third location in the Fermentor): 0.37 g/L
Lactate Concentration (bacteria; Day of Trial 15, Fifth location in the Fermentor): 0.5 g/L
Lactate Concentration (bacteria; Day of Trial 15, First location in the Fermentor): 0.22 g/L
Lactate Concentration (bacteria; Day of Trial 15, Fourth location in the Fermentor): 0.4 g/L
Lactate Concentration (bacteria; Day of Trial 15, Second location in the Fermentor): 0.32 g/L
Lactate Concentration (bacteria; Day of Trial 15, Third location in the Fermentor): 0.34 g/L
Lactate Concentration (bacteria; Day of Trial 16, Fifth location in the Fermentor): 0.6 g/L
Lactate Concentration (bacteria; Day of Trial 16, First location in the Fermentor): 0.3 g/L
Lactate Concentration (bacteria; Day of Trial 16, Fourth location in the Fermentor): 0.5 g/L
Lactate Concentration (bacteria; Day of Trial 16, Second location in the Fermentor): 0.4 g/L
Lactate Concentration (bacteria; Day of Trial 16, Third location in the Fermentor): 0.45 g/L
Lactate Concentration (bacteria; Day of Trial 17, Fifth location in the Fermentor): 0.67 g/L
Lactate Concentration (bacteria; Day of Trial 17, First location in the Fermentor): 0.29 g/L
Lactate Concentration (bacteria; Day of Trial 17, Fourth location in the Fermentor): 0.57 g/L
Lactate Concentration (bacteria; Day of Trial 17, Second location in the Fermentor): 0.43 g/L
Lactate Concentration (bacteria; Day of Trial 17, Third location in the Fermentor): 0.5 g/L
Lactate Concentration (bacteria; Day of Trial 18, Fifth location in the Fermentor): 0.62 g/L
Lactate Concentration (bacteria; Day of Trial 18, First location in the Fermentor): 0.43 g/L
Lactate Concentration (bacteria; Day of Trial 18, Fourth location in the Fermentor): 0.6 g/L
Lactate Concentration (bacteria; Day of Trial 18, Second location in the Fermentor): 0.48 g/L
Lactate Concentration (bacteria; Day of Trial 18, Third location in the Fermentor): 0.54 g/L
Lactate Concentration (bacteria; Day of Trial 19, Fifth location in the Fermentor): 1.1 g/L
Lactate Concentration (bacteria; Day of Trial 19, First location in the Fermentor): 0.4 g/L
Lactate Concentration (bacteria; Day of Trial 19, Fourth location in the Fermentor): 0.8 g/L
Lactate Concentration (bacteria; Day of Trial 19, Second location in the Fermentor): 0.6 g/L
Lactate Concentration (bacteria; Day of Trial 19, Third location in the Fermentor): 0.7 g/L
Lactate Concentration (bacteria; Day of Trial 20, Fifth location in the Fermentor): 0.85 g/L
Lactate Concentration (bacteria; Day of Trial 20, First location in the Fermentor): 0.55 g/L
Lactate Concentration (bacteria; Day of Trial 20, Fourth location in the Fermentor): 0.5 g/L
Lactate Concentration (bacteria; Day of Trial 20, Second location in the Fermentor): 0.7 g/L
Lactate Concentration (bacteria; Day of Trial 20, Third location in the Fermentor): 0.75 g/L
Lactate Concentration (bacteria; Day of Trial 21, Fifth location in the Fermentor): 1.36 g/L
Lactate Concentration (bacteria; Day of Trial 21, First location in the Fermentor): 0.9 g/L
Lactate Concentration (bacteria; Day of Trial 21, Fourth location in the Fermentor): 1.35 g/L
Lactate Concentration (bacteria; Day of Trial 21, Second location in the Fermentor): 1.16 g/L
Lactate Concentration (bacteria; Day of Trial 21, Third location in the Fermentor): 1.24 g/L
Lactate Concentration (bacteria; Day of Trial 22, Fifth location in the Fermentor): 1.66 g/L
Lactate Concentration (bacteria; Day of Trial 22, First location in the Fermentor): 1.31 g/L
Lactate Concentration (bacteria; Day of Trial 22, Fourth location in the Fermentor): 2.04 g/L
Lactate Concentration (bacteria; Day of Trial 22, Second location in the Fermentor): 1.73 g/L
Lactate Concentration (bacteria; Day of Trial 22, Third location in the Fermentor): 2.01 g/L
Lactate Concentration (bacteria; Day of Trial 23, Fifth location in the Fermentor): 2.15 g/L
Lactate Concentration (bacteria; Day of Trial 23, First location in the Fermentor): 1.39 g/L
Lactate Concentration (bacteria; Day of Trial 23, Fourth location in the Fermentor): 2.19 g/L
Lactate Concentration (bacteria; Day of Trial 23, Second location in the Fermentor): 1.75 g/L
Lactate Concentration (bacteria; Day of Trial 23, Third location in the Fermentor): 2.01 g/L
Lactate Concentration (bacteria; Day of Trial 24, Fifth location in the Fermentor): 2.13 g/L
Lactate Concentration (bacteria; Day of Trial 24, First location in the Fermentor): 1.12 g/L
Lactate Concentration (bacteria; Day of Trial 24, Fourth location in the Fermentor): 2 g/L
Lactate Concentration (bacteria; Day of Trial 24, Second location in the Fermentor): 1.41 g/L
Lactate Concentration (bacteria; Day of Trial 24, Third location in the Fermentor): 1.73 g/L
lactate trend once treatment was started (bacteria; chlorine dioxide at 20 ppm with a pH elevation to 4): trended downward
